From PMC5557796, “Ligand binding modes from low resolution GPCR models and mutagenesis: chicken bitter taste receptor as a test-case” (Scientific Reports, 2017)

Assays:
ggTas2r1 [1] = target: T1, ggTas2r1 (Gallus gallus, UniProt Q2AB83); experiment: FLIPR calcium mobilization, Fluo4-AM; format: cell-based; settings: agonist, HEK 293T with Galpha16gust44
T1 construct: gene TAS2R40; full-length receptor with in-frame N-terminal sst3-tag and C-terminal hsv-tag in pcDNA5/FRT; transient in HEK 293T stably expressing chimeric Galpha16gust44
T1 sequence (Q2AB83 1-311): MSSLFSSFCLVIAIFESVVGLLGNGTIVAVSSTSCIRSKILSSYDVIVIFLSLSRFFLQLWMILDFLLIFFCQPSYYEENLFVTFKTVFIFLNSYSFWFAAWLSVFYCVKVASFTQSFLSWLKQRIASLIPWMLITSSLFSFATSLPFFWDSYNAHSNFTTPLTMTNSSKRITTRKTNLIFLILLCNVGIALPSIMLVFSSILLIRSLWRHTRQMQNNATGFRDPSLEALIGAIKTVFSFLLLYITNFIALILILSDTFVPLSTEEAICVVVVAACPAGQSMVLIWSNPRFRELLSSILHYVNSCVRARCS

ggTas2r1 [2] = target: T1, ggTas2r1; experiment: FLIPR calcium mobilization, Fluo4-AM; format: cell-based; settings: agonist; HEK 293T with Galpha16gust44; 2.5 mM probenecid in dye loading

Compound | dose-response ΔF/F (ggTas2r1 [1]) | also measured
O=C(N[C@H](CO)[C@H](O)c1ccc([N+](=O)[O-])cc1)C(Cl)Cl [chloramphenicol] | at high chloramphenicol concentration the maximal signal amplitude is comparable to the native receptor | 
CN(C)CCC(c1ccc(Cl)cc1)c1ccccn1 (stereo not drawn) [chlorpheniramine] | The functional data for receptor constructs stimulated with chlorpheniramine ranges from wild-type like receptor | 
O=c1ccc2ccccc2o1 [coumarin] | The small compound coumarin is only a weak agonist for ggTas2r1 | 
OC(CCCN1CCCCC1)(c1ccccc1)c1ccccc1 [diphenidol] | variable decrease in responses compared to the wild-type ggTas2r1 upon stimulation with diphenidol | 
C=C[C@H]1CN2CC[C@H]1C[C@@H]2[C@@H](O)c1ccnc2ccc(OC)cc12 [quinidine] |  | threshold concentration (ggTas2r1 [2]): ~ 0.3 µM
C=C[C@H]1CN2CC[C@H]1C[C@H]2[C@H](O)c1ccnc2ccc(OC)cc12 [quinine] |  | dose-response ΔF/F (ggTas2r1 [1]; tested as quinine sulfate): subjected to calcium-mobilization assays using different concentrations of quinine sulfate
